Measured values reported in ChEMBL document CHEMBL3044736, “Synthesis, characterization, solvatochromic properties, and antimicrobial evaluation of 5-acetyl-2-thioxo-dihydro-pyrimidine-4,6-dione-based chalcones” (2013).
≈ marks a conversion by molar mass, not a printed value.

Tests used:
Assay type in all cases: functional
[1] = system: Streptococcus pyogenes; experiment: Antimicrobial activity against Streptococcus pyogenes MTCC 442 assessed as diameter of growth inhibition zone at 25 ug/ml after 18-24 hr by agar cup diffusion method; settings: read-out: DIZ
[2] = system: Pseudomonas aeruginosa; experiment: Antimicrobial activity against Pseudomonas aeruginosa MTCC 1688 assessed as diameter of growth inhibition zone at 100 ug/ml after 18-24 hr by agar cup diffusion method; settings: read-out: DIZ
[3] = system: Trichophyton rubrum; experiment: Antimicrobial activity against Trichophyton rubrum MTCC 296 assessed as diameter of growth inhibition zone at 50 ug/ml after 48-96 hr by agar cup diffusion method; settings: read-out: DIZ
[4] = system: Streptococcus pyogenes; experiment: Antimicrobial activity against Streptococcus pyogenes MTCC 442 assessed as diameter of growth inhibition zone at 250 ug/ml after 18-24 hr by agar cup diffusion method; settings: read-out: DIZ
[5] = system: Aspergillus clavatus; experiment: Antimicrobial activity against Aspergillus clavatus MTCC 1323 by agar cup diffusion method
[6] = system: Streptococcus pyogenes; experiment: Antimicrobial activity against Streptococcus pyogenes MTCC 442 assessed as diameter of growth inhibition zone at 100 ug/ml after 18-24 hr by agar cup diffusion method; settings: read-out: DIZ
[7] = system: Escherichia coli; experiment: Antimicrobial activity against Escherichia coli MTCC 443 assessed as diameter of growth inhibition zone at 250 ug/ml after 18-24 hr by agar cup diffusion method; settings: read-out: DIZ
[8] = system: Escherichia coli; experiment: Antimicrobial activity against Escherichia coli MTCC 443 assessed as diameter of growth inhibition zone at 50 ug/ml after 18-24 hr by agar cup diffusion method; settings: read-out: DIZ
[9] = system: Streptococcus pyogenes; experiment: Antimicrobial activity against Streptococcus pyogenes MTCC 442 by agar cup diffusion method
[10] = system: Pseudomonas aeruginosa; experiment: Antimicrobial activity against Pseudomonas aeruginosa MTCC 1688 assessed as diameter of growth inhibition zone at 250 ug/ml after 18-24 hr by agar cup diffusion method; settings: read-out: DIZ
[11] = system: Aspergillus clavatus; experiment: Antimicrobial activity against Aspergillus clavatus MTCC 1323 assessed as diameter of growth inhibition zone at 50 ug/ml after 48-96 hr by agar cup diffusion method; settings: read-out: DIZ
[12] = system: Trichophyton rubrum; experiment: Antimicrobial activity against Trichophyton rubrum MTCC 296 assessed as diameter of growth inhibition zone at 100 ug/ml after 48-96 hr by agar cup diffusion method; settings: read-out: DIZ
[13] = system: Aspergillus clavatus; experiment: Antimicrobial activity against Aspergillus clavatus MTCC 1323 assessed as diameter of growth inhibition zone at 25 ug/ml after 48-96 hr by agar cup diffusion method; settings: read-out: DIZ
[14] = system: Pseudomonas aeruginosa; experiment: Antimicrobial activity against Pseudomonas aeruginosa MTCC 1688 assessed as diameter of growth inhibition zone at 50 ug/ml after 18-24 hr by agar cup diffusion method; settings: read-out: DIZ
[15] = system: Penicillium; experiment: Antimicrobial activity against Penicillium wild strain assessed as diameter of growth inhibition zone at 25 ug/ml after 48-96 hr by agar cup diffusion method; settings: read-out: DIZ
[16] = system: Aspergillus clavatus; experiment: Antimicrobial activity against Aspergillus clavatus MTCC 1323 assessed as diameter of growth inhibition zone at 250 ug/ml after 48-96 hr by agar cup diffusion method; settings: read-out: DIZ
[17] = system: Staphylococcus aureus; experiment: Antimicrobial activity against Staphylococcus aureus MTCC 96 assessed as diameter of growth inhibition zone at 50 ug/ml after 18-24 hr by agar cup diffusion method; settings: read-out: DIZ
[18] = system: Trichophyton rubrum; experiment: Antimicrobial activity against Trichophyton rubrum MTCC 296 assessed as diameter of growth inhibition zone at 250 ug/ml after 48-96 hr by agar cup diffusion method; settings: read-out: DIZ
[19] = system: Escherichia coli; experiment: Antimicrobial activity against Escherichia coli MTCC 443 assessed as diameter of growth inhibition zone at 100 ug/ml after 18-24 hr by agar cup diffusion method; settings: read-out: DIZ
[20] = system: Trichophyton rubrum; experiment: Antimicrobial activity against Trichophyton rubrum MTCC 296 by agar cup diffusion method
[21] = system: Streptococcus pyogenes; experiment: Antimicrobial activity against Streptococcus pyogenes MTCC 442 assessed as diameter of growth inhibition zone at 50 ug/ml after 18-24 hr by agar cup diffusion method; settings: read-out: DIZ
[22] = system: Klebsiella pneumoniae; experiment: Antimicrobial activity against Klebsiella pneumoniae MTCC 109 assessed as diameter of growth inhibition zone at 100 ug/ml after 18-24 hr by agar cup diffusion method; settings: read-out: DIZ
[23] = system: Penicillium; experiment: Antimicrobial activity against Penicillium wild strain assessed as diameter of growth inhibition zone at 50 ug/ml after 48-96 hr by agar cup diffusion method; settings: read-out: DIZ
[24] = system: Pseudomonas aeruginosa; experiment: Antimicrobial activity against Pseudomonas aeruginosa MTCC 1688 assessed as diameter of growth inhibition zone at 25 ug/ml after 18-24 hr by agar cup diffusion method; settings: read-out: DIZ
[25] = system: Candida albicans; experiment: Antimicrobial activity against Candida albicans MTCC 227 assessed as diameter of growth inhibition zone at 50 ug/ml after 48-96 hr by agar cup diffusion method; settings: read-out: DIZ
[26] = system: Pseudomonas aeruginosa; experiment: Antimicrobial activity against Pseudomonas aeruginosa MTCC 1688 by agar cup diffusion method
[27] = system: Penicillium; experiment: Antimicrobial activity against Penicillium wild strain assessed as diameter of growth inhibition zone at 100 ug/ml after 48-96 hr by agar cup diffusion method; settings: read-out: DIZ
[28] = system: Klebsiella pneumoniae; experiment: Antimicrobial activity against Klebsiella pneumoniae MTCC 109 assessed as diameter of growth inhibition zone at 50 ug/ml after 18-24 hr by agar cup diffusion method; settings: read-out: DIZ
[29] = system: Candida albicans; experiment: Antimicrobial activity against Candida albicans MTCC 227 by agar cup diffusion method
[30] = system: Staphylococcus aureus; experiment: Antimicrobial activity against Staphylococcus aureus MTCC 96 assessed as diameter of growth inhibition zone at 25 ug/ml after 18-24 hr by agar cup diffusion method; settings: read-out: DIZ
[31] = system: Staphylococcus aureus; experiment: Antimicrobial activity against Staphylococcus aureus MTCC 96 assessed as diameter of growth inhibition zone at 250 ug/ml after 18-24 hr by agar cup diffusion method; settings: read-out: DIZ
[32] = system: Staphylococcus aureus; experiment: Antimicrobial activity against Staphylococcus aureus MTCC 96 assessed as diameter of growth inhibition zone at 100 ug/ml after 18-24 hr by agar cup diffusion method; settings: read-out: DIZ
[33] = system: Escherichia coli; experiment: Antimicrobial activity against Escherichia coli MTCC 443 by agar cup diffusion method
[34] = system: Candida albicans; experiment: Antimicrobial activity against Candida albicans MTCC 227 assessed as diameter of growth inhibition zone at 25 ug/ml after 48-96 hr by agar cup diffusion method; settings: read-out: DIZ
[35] = system: Aspergillus clavatus; experiment: Antimicrobial activity against Aspergillus clavatus MTCC 1323 assessed as diameter of growth inhibition zone at 100 ug/ml after 48-96 hr by agar cup diffusion method; settings: read-out: DIZ
[36] = system: Candida albicans; experiment: Antimicrobial activity against Candida albicans MTCC 227 assessed as diameter of growth inhibition zone at 250 ug/ml after 48-96 hr by agar cup diffusion method; settings: read-out: DIZ
[37] = system: Escherichia coli; experiment: Antimicrobial activity against Escherichia coli MTCC 443 assessed as diameter of growth inhibition zone at 25 ug/ml after 18-24 hr by agar cup diffusion method; settings: read-out: DIZ
[38] = system: Penicillium; experiment: Antimicrobial activity against Penicillium wild strain by agar cup diffusion method
[39] = system: Klebsiella pneumoniae; experiment: Antimicrobial activity against Klebsiella pneumoniae MTCC 109 by agar cup diffusion method
[40] = system: Candida albicans; experiment: Antimicrobial activity against Candida albicans MTCC 227 assessed as diameter of growth inhibition zone at 100 ug/ml after 48-96 hr by agar cup diffusion method; settings: read-out: DIZ
[41] = system: Klebsiella pneumoniae; experiment: Antimicrobial activity against Klebsiella pneumoniae MTCC 109 assessed as diameter of growth inhibition zone at 25 ug/ml after 18-24 hr by agar cup diffusion method; settings: read-out: DIZ
[42] = system: Staphylococcus aureus; experiment: Antimicrobial activity against Staphylococcus aureus MTCC 96 by agar cup diffusion method
[43] = system: Trichophyton rubrum; experiment: Antimicrobial activity against Trichophyton rubrum MTCC 296 assessed as diameter of growth inhibition zone at 25 ug/ml after 48-96 hr by agar cup diffusion method; settings: read-out: DIZ
[44] = system: Penicillium; experiment: Antimicrobial activity against Penicillium wild strain assessed as diameter of growth inhibition zone at 250 ug/ml after 48-96 hr by agar cup diffusion method; settings: read-out: DIZ
[45] = system: Klebsiella pneumoniae; experiment: Antimicrobial activity against Klebsiella pneumoniae MTCC 109 assessed as diameter of growth inhibition zone at 250 ug/ml after 18-24 hr by agar cup diffusion method; settings: read-out: DIZ

## O=C(/C=C/c1ccccc1)C1C(=O)NC(=S)NC1=O
[1]
  zone of inhibition at 25 µg/mL: 12 mm
[2]
  zone of inhibition at 100 µg/mL: 15 mm
[3]
  zone of inhibition at 50 µg/mL: 24 mm
[4]
  zone of inhibition at 250 µg/mL: 17 mm
[5]
  MFC: 1000 µg/mL (≈ 3650 µM)
  MIC: 1000 µg/mL (≈ 3650 µM)
[6]
  zone of inhibition at 100 µg/mL: 15 mm
[7]
  zone of inhibition at 250 µg/mL: 17 mm
[8]
  zone of inhibition at 50 µg/mL: 15 mm
[9]
  MBC: 500 µg/mL (≈ 1820 µM)
  MIC: 250 µg/mL (≈ 911 µM)
[10]
  zone of inhibition at 250 µg/mL: 17 mm
[11]
  zone of inhibition at 50 µg/mL: 19 mm
[12]
  zone of inhibition at 100 µg/mL: 24 mm
[13]
  zone of inhibition at 25 µg/mL: 18 mm
[14]
  zone of inhibition at 50 µg/mL: 13 mm
[15]
  zone of inhibition at 25 µg/mL: 19 mm
[16]
  zone of inhibition at 250 µg/mL: 24 mm
[17]
  zone of inhibition at 50 µg/mL: 13 mm
[18]
  zone of inhibition at 250 µg/mL: 25 mm
[19]
  zone of inhibition at 100 µg/mL: 15 mm
[20]
  MFC: 1000 µg/mL (≈ 3650 µM)
  MIC: 1000 µg/mL (≈ 3650 µM)
[21]
  zone of inhibition at 50 µg/mL: 15 mm
[22]
  zone of inhibition at 100 µg/mL: 14 mm
[23]
  zone of inhibition at 50 µg/mL: 21 mm
[24]
  zone of inhibition at 25 µg/mL: 10 mm
[25]
  zone of inhibition at 50 µg/mL: 18 mm
[26]
  MBC: 250 µg/mL (≈ 911 µM)
  MIC: 250 µg/mL (≈ 911 µM)
[27]
  zone of inhibition at 100 µg/mL: 22 mm
[28]
  zone of inhibition at 50 µg/mL: 12 mm
[29]
  MFC: 1000 µg/mL (≈ 3650 µM)
  MIC: 500 µg/mL (≈ 1820 µM)
[30]
  zone of inhibition at 25 µg/mL: 10 mm
[31]
  zone of inhibition at 250 µg/mL: 17 mm
[32]
  zone of inhibition at 100 µg/mL: 15 mm
[33]
  MBC: 500 µg/mL (≈ 1820 µM)
  MIC: 250 µg/mL (≈ 911 µM)
[34]
  zone of inhibition at 25 µg/mL: 16 mm
[35]
  zone of inhibition at 100 µg/mL: 21 mm
[36]
  zone of inhibition at 250 µg/mL: 22 mm
[37]
  zone of inhibition at 25 µg/mL: 12 mm
[38]
  MFC: > 1000 µg/mL
  MIC: 1000 µg/mL (≈ 3650 µM)
[39]
  MBC: 250 µg/mL (≈ 911 µM)
  MIC: 200 µg/mL (≈ 729 µM)
[40]
  zone of inhibition at 100 µg/mL: 22 mm
[41]
  zone of inhibition at 25 µg/mL: 10 mm
[42]
  MBC: 250 µg/mL (≈ 911 µM)
  MIC: 250 µg/mL (≈ 911 µM)
[43]
  zone of inhibition at 25 µg/mL: 20 mm
[44]
  zone of inhibition at 250 µg/mL: 24 mm
[45]
  zone of inhibition at 250 µg/mL: 17 mm
